Measurements as given in patent US20240115654A1, “INTRAVENOUS ADMINISTRATION OF ENGINEERED ANTIMICROBIAL AMPHIPHILIC PEPTIDES” (priority 2021, published 2024).
Converted amounts (≈) assume the structure as drawn. Read-outs that look alike come from different tables or passages of the source.

Key:
[1] = test system: Enterobacter spp. isolates (Enterobacter aerogenes and E. cloacae, n = 102); experiment: organism not typed; conditions: for % R (percent of isolates resistant): CLSI breakpoints, colistin EUCAST; for MIC: read-out: Mode (MIC)
Experimental: (§1) Comparator antibiotics were supplied by Micromyx, and stock solutions were prepared on the first day of testing using solvents recommended by CLSI (1). Stock solutions of all compounds were made at 40× the final testing concentration and stored at −80° C. prior to testing. Information regarding compound source, catalog and lot number, testing concentrations and drug diluent for the comparators and test agent are detailed below in Table 3.
(§2) The test organisms evaluated in this study consisted of clinical isolates from the Micromyx Repository and reference isolates from the American Type Culture Collection (ATCC; Manassas, VA). The clinical isolates were obtained from USA hospitals. Upon initial receipt at Micromyx, the organisms were sub-cultured onto an appropriate agar medium. Following incubation, colonies were harvested from these plates and cell suspensions prepared and frozen at −80° C. with a cryoprotectant. Prior to testing, the isolates were streaked from frozen vials onto Trypticase Soy Agar with 5% sheep blood (Becton Dickenson [BD]; Sparks, MD; Lot Nos. 7173618, 7166759, 7208688, 72144895, 7228505 and Remel Lenexa, KS Lot No. 212574). Plates were incubated at 35° C. overnight.
(§3) Mueller Hinton II broth (MHB II; BD; Lot Nos. 6258541 and 7143896) was used for MIC testing of aerobic organisms.
(§4) MIC values were determined using a broth microdilution procedure described by CLSI (1, 3). Automated liquid handlers (Multidrop 384, Labsystems, Helsinki, Finland; Biomek 2000 and Biomek FX, Beckman Coulter, Fullerton CA) were used to conduct serial dilutions and liquid transfers.
(§5) To prepare the drug mother plates, which would provide the serial drug dilutions for the replicate daughter plates, the wells of columns 2-12 of standard 96-well microdilution plates (Costar 3795) were filled with 150 μl of the designated diluent for each row of drug. The test articles and comparator compounds (300 μl at 40× the highest concentration to be tested) were dispensed into the appropriate wells in column 1. The Biomek 2000 was then used to make 2-fold serial dilutions in the mother plates from column 1 through column 11. The wells of Column 12 contained no drug and served as the organism growth control wells for the assay.
(§6) The daughter plates were loaded with 185 μL per well of MHB II using the Multidrop 384. The daughter plates were completed on the Biomek FX instrument which transferred 5 μL of drug solution from each well of a mother plate to the corresponding well of each daughter plate in a single step. A standardized inoculum of each test organism was prepared per CLSI methods (1). The inoculum for each organism was dispensed into sterile reservoirs divided by length (Beckman Coulter), and the Biomek 2000 was used to inoculate the plates. Daughter plates were placed on the Biomek 2000 work surface in reverse orientation so that inoculation took place from low to high drug concentration.
(§7) Plates were stacked 3-4 high, covered with a lid on the top plate, placed in plastic bags, and incubated at 35° C. for 16 to 20 hrs. Following incubation, the microplates were removed from the incubator and viewed from the bottom using a plate viewer. […] The MIC was read and recorded as the lowest concentration of drug that inhibited visible growth of the organism.
(§8) Clinical breakpoints to determine percent resistance within a given organism group were obtained from CLSI (3), with the exception of colistin for K. pneumoniae, Enterobacter spp., and E. coli, which are only available from EUCAST.

[2] = test system: Escherichia coli isolates (n = 101); conditions: Escherichia coli (n = 101); CLSI breakpoints, colistin EUCAST
Experimental: as §1, §2, §3, §4, §5, §6, §7, §8

[3] = test system: Klebsiella pneumoniae isolates (n = 101)
Experimental: as §1, §2, §3, §4, §5, §6, §7, §8

[4] = test system: Acinetobacter spp. isolates (n = 104); conditions: Acinetobacter spp. (n = 104); CLSI breakpoints
Experimental: as §1, §2, §3, §4, §5, §6, §7, §8

[5] = test system: Pseudomonas aeruginosa isolates (n = 109); conditions: Pseudomonas aeruginosa (n = 109); CLSI breakpoints
Experimental: as §1, §2, §3, §4, §5, §6, §7, §8

[6] = test system: Staphylococcus aureus isolates (n = 104); experiment: microbe, parasite or virus in culture; conditions: for % R (percent of isolates resistant): CLSI breakpoints
Experimental: as §1, §2, §3, §4, §5, §6, §7, §8

[7] = test system: Enterococcus faecium isolates (n = 104); experiment: microbe, parasite or virus in culture; conditions: for MIC: read-out: Mode (MIC); for % R (percent of isolates resistant): CLSI breakpoints
Experimental: as §1
as §2, with “Prior to testing, the isolates were streaked from frozen vials onto Trypticase Soy Agar with 5% sheep blood (Becton Dickenson [BD]; Sparks, MD; Lot Nos. 7173618, 7166759, 7208688, 72144895, 7228505 and Remel Lenexa, KS Lot No. 212574).” left out
MIC values were determined using a broth microdilution procedure described by CLSI (1, 3).
The test articles and comparator compounds (300 μl at 40× the highest concentration to be tested) were dispensed into the appropriate wells in column 1. The Biomek 2000 was then used to make 2-fold serial dilutions in the mother plates from column 1 through column 11. The wells of Column 12 contained no drug and served as the organism growth control wells for the assay.
as §6, with “The” for “The daughter plates were loaded with 185 μL per well of MHB II using the Multidrop 384. The”
as §7, §8

[8] = Klebsiella pneumoniae (n = 101), CLSI breakpoints, colistin EUCAST
[9] = Staphylococcus aureus (n = 104), all methicillin-resistant
[10] = Staphylococcus aureus (n = 104)

SMILES	MIC50 [1]	MIC90 [1]	% R (percent of isolates resistant) ([1]; Enterobacter spp. (n = 102))	MIC [1]	% R (percent of isolates resistant) [2]	% R (percent of isolates resistant) [3]	% R (percent of isolates resistant) [3, 8]	% R (percent of isolates resistant) [4]	% R (percent of isolates resistant) [5]	% R (percent of isolates resistant) [6, 10]	MIC50 ([7]; Enterococcus faecium)	MIC90 ([7]; Enterococcus faecium)	MIC ([7]; Enterococcus faecium)	MIC range [6, 9]	% R (percent of isolates resistant) ([7]; Enterococcus faecium (n = 104))	also measured
CC(C)(O/N=C(\C(=O)N[C@@H]1C(=O)N2C(C(=O)[O-])=C(C[n+]3ccccc3)CS[C@H]12)c1csc(N)n1)C(=O)O [Ceftazidime]	1 mg/L (≈ 1.83 µM)	> 32 mg/L	36.3%	> 32 mg/L	33.6%	Over 80%	80.2%	61.5%	14.6%							
CCC[C@@H]1C[C@@H](C(=O)N[C@@H]([C@H]2O[C@H](SC)[C@H](O)[C@@H](O)[C@H]2O)[C@H](C)Cl)N(C)C1 [Clindamycin]										37.5%	> 16 mg/L	> 16 mg/L	> 16 mg/L			MIC90 [6, 9]: >16 mg/L
C[C@H]1c2cccc(O)c2C(=O)C2=C(O)[C@]3(O)C(=O)C(C(N)=O)=C(O)[C@@H](N(C)C)[C@@H]3[C@@H](O)[C@@H]21 [Doxycycline]										0%	4 mg/L (≈ 9 µM)	16 mg/L (≈ 36 µM)	0.12 mg/L (≈ 0.27 µM)	0.06 to 8 mg/L	25%	
C[C@H]1COc2c(N3CCN(C)CC3)c(F)cc3c(=O)c(C(=O)O)cn1c23 [Levofloxacin]	0.06 mg/L (≈ 0.166 µM)	0.5 mg/L (≈ 1.38 µM)	4.9%	0.03 mg/L (≈ 0.083 µM)	46.5%	over 60%	67.3%	66.3%	21.1%	82.7%	> 8 mg/L	> 8 mg/L	> 8 mg/L			MIC90 [6, 9]: >8 mg/L; % R (percent of isolates resistant) ([6]; Staphylococcus aureus (n = 104), listed as levofloxacin): Over 80%
CC(=O)NC[C@H]1CN(c2ccc(N3CCOCC3)c(F)c2)C(=O)O1 [Linezolid]										1.9%	2 mg/L (≈ 5.93 µM)	4 mg/L (≈ 11.9 µM)	2 mg/L (≈ 5.93 µM)	1 to 8 mg/L	3.8%	MIC range ([7]; Enterococcus faecium (n = 104)): 1 to 32 mg/L; MIC range ([7]; Enterococcus faecium (n = 104), listed as linezolid): 1 to 32 mg/L
NC[C@H]1O[C@H](O[C@H]2[C@H](O)[C@@H](O[C@H]3O[C@H](CO)[C@@H](O)[C@H](N)[C@H]3O)[C@H](N)C[C@@H]2N)[C@H](N)C[C@@H]1O [Tobramycin]	0.5 mg/L (≈ 1.07 µM)	1 mg/L (≈ 2.14 µM)	3.9%	0.5 mg/L (≈ 1.07 µM)	21.7%	over 60%	59.4%	49.0%	7.4%							MIC range ([1]; Enterobacter spp. (n = 102)): 0.12 to 64 mg/L
CN[C@H](CC(C)C)C(=O)N[C@H]1C(=O)N[C@@H](CC(N)=O)C(=O)N[C@H]2C(=O)N[C@H]3C(=O)N[C@H](C(=O)N[C@H](C(=O)O)c4cc(O)cc(O)c4-c4cc3ccc4O)[C@H](O)c3ccc(c(Cl)c3)Oc3cc2cc(c3O[C@@H]2O[C@H](CO)[C@@H](O)[C@H](O)[C@H]2O[C@H]2C[C@](C)(N)[C@H](O)[C@H](C)O2)Oc2ccc(cc2Cl)[C@H]1O [Vancomycin]										0%	1 mg/L (≈ 0.69 µM)	> 32 mg/L	> 32 mg/L	0.5 to 2 mg/L	47.1%	MIC50 ([6]; Staphylococcus aureus): 1 mg/L (≈ 0.69 µM); MIC90 ([6]; Staphylococcus aureus): 1 mg/L (≈ 0.69 µM); MIC ([6]; Staphylococcus aureus, read-out: Mode (MIC)): 1 mg/L (≈ 0.69 µM); MIC90 ([7]; Enterococcus faecium (n = 104)): >32 mg/L
